Measurements as given in BindingDB's records for doi:10.1016/s0960-894x(03)00195-1 (Abbott Laboratories, 2003).

Assay: Inhibition of transfer of […] to biotin K-ras peptide (KKSKTKCVLL) catalyzed by bovine GGTase-I

SMILES	IC50
Cn1cncc1[C@H](OCc1nc(Cl)c(C#N)cc1-c1cccc(Cl)c1)c1ccc(C#N)cc1	2800 nM
Cn1cncc1C(OCc1nc(N2CCN(C(=O)OC(C)(C)C)CC2)c(C#N)cc1-c1cccc(Cl)c1)c1ccc(C#N)cc1 (centres undefined)	650 nM
Cn1cncc1C(OCc1ccc(C#N)nc1-c1cccc(OC(F)(F)F)c1)c1ccc(C#N)cc1 (centres undefined)	510 nM
Cn1cncc1C(OCc1ncc(C#N)cc1-c1cccc(Cl)c1)c1ccc(C#N)cc1 (centres undefined)	4200 nM
CC(=O)N1CCN(c2nc(COC(c3ccc(C#N)cc3)c3cncn3C)c(-c3cccc(Cl)c3)cc2C#N)CC1 (centres undefined)	2100 nM
Cn1cncc1C(OCc1ccc(C#N)nc1-c1cc(F)cc(F)c1)c1ccc(C#N)cc1 (centres undefined)	4800 nM
Cn1cncc1C(OCc1ccc(C#N)c(-c2ccc3ccccc3c2)n1)c1ccc(C#N)cc1 (centres undefined)	2600 nM
Cn1cncc1C(OCc1ccc(C#N)c(-c2cccc(Cl)c2)n1)c1ccc(C#N)cc1 (centres undefined) [2-(3-Chloro-phenyl)-6-[(4-cyano-phenyl)-(3-methyl-3H-imidazol-4-yl)-methoxymethyl]-nicotinonitrile]	1100 nM
Cn1cncc1C(OCc1ccc(C#N)cc1)c1ccc(C#N)c(-c2cccc3cccnc23)c1 (centres undefined) [4-[(4-Cyano-benzyloxy)-(3-methyl-3H-imidazol-4-yl)-methyl]-2-quinolin-8-yl-benzonitrile]	103 nM
COc1cccc(-c2cc(C#N)ccc2COC(c2ccc(C#N)cc2)c2cncn2C)c1 (centres undefined) [4-{[(4-cyanophenyl)(1-methyl-1H-imidazol-5-yl)methoxy]methyl}-3-(3-methoxyphenyl)benzonitrile]	3900 nM
Cn1cncc1C(OCc1nc(N2CCC(C(N)=O)CC2)c(C#N)cc1-c1cccc(Cl)c1)c1ccc(C#N)cc1 (centres undefined) [5'-(3-Chloro-phenyl)-3'-cyano-6'-[(4-cyano-phenyl)-(3-methyl-3H-imidazol-4-yl)-methoxymethyl]-3,4,5,6-tetrahydro-2H-[1,2']bipyridinyl-4-carboxylic acid amide]	2100 nM
Cn1cncc1C(OCc1nc(N2CCC(O)CC2)c(C#N)cc1-c1cccc(Cl)c1)c1ccc(C#N)cc1 (centres undefined) [5'-(3-Chloro-phenyl)-6'-[(4-cyano-phenyl)-(3-methyl-3H-imidazol-4-yl)-methoxymethyl]-4-hydroxy-3,4,5,6-tetrahydro-2H-[1,2']bipyridinyl-3'-carbonitrile]	830 nM
CN1CCN(c2nc(COC(c3ccc(C#N)cc3)c3cncn3C)c(-c3cccc(Cl)c3)cc2C#N)CC1 (centres undefined) [5-(3-Chloro-phenyl)-6-[(4-cyano-phenyl)-(3-methyl-3H-imidazol-4-yl)-methoxymethyl]-2-(4-methyl-piperazin-1-yl)-nicotinonitrile]	2400 nM
Cn1cncc1C(OCc1nc(N2CCOCC2)c(C#N)cc1-c1cccc(Cl)c1)c1ccc(C#N)cc1 (centres undefined) [5-(3-Chloro-phenyl)-6-[(4-cyano-phenyl)-(3-methyl-3H-imidazol-4-yl)-methoxymethyl]-2-morpholin-4-yl-nicotinonitrile]	1800 nM
Cn1cncc1C(OCc1ccc(C#N)cc1-c1cc(Cl)cc(Cl)c1)c1ccc(C#N)nc1 (centres undefined) [5-[(3',5'-Dichloro-5-cyano-biphenyl-2-ylmethoxy)-(3-methyl-3H-imidazol-4-yl)-methyl]-pyridine-2-carbonitrile]	960 nM

Other lines, results leading:

IC50	SMILES
8600 nM	Cn1cncc1C(OCc1ccc(C#N)cc1-c1ccc(F)c(Cl)c1)c1ccc(C#N)nc1 (centres undefined) [5-[(3'-Chloro-5-cyano-4'-fluoro-biphenyl-2-ylmethoxy)-(3-methyl-3H-imidazol-4-yl)-methyl]-pyridine-2-carbonitrile]
8620 nM	Cn1cncc1C(OCc1ccc(C#N)cc1-c1cccc(Cl)c1)c1ccc(C#N)nc1 (centres undefined) [5-[(3'-Chloro-5-cyano-biphenyl-2-ylmethoxy)-(3-methyl-3H-imidazol-4-yl)-methyl]-pyridine-2-carbonitrile]
1100 nM	Cn1cncc1C(OCc1ccc(C#N)nc1-c1ccc2c(c1)OC(F)(F)O2)c1ccc(C#N)cc1 (centres undefined) [5-[(4-Cyano-phenyl)-(3-methyl-3H-imidazol-4-yl)-methoxymethyl]-6-(2,2-difluoro-benzo[1,3]dioxol-5-yl)-pyridine-2-carbonitrile]
1400 nM	Cn1cncc1C(OCc1ccc(C#N)nc1-c1cc(Cl)cc(Cl)c1)c1ccc(C#N)cc1 (centres undefined) [5-[(4-Cyano-phenyl)-(3-methyl-3H-imidazol-4-yl)-methoxymethyl]-6-(3,5-dichloro-phenyl)-pyridine-2-carbonitrile]
1200 nM	Cn1cncc1C(OCc1ccc(C#N)nc1-c1ccc(OC(F)(F)F)cc1)c1ccc(C#N)cc1 (centres undefined) [5-[(4-Cyano-phenyl)-(3-methyl-3H-imidazol-4-yl)-methoxymethyl]-6-(4-trifluoromethoxy-phenyl)-pyridine-2-carbonitrile]
5500 nM	Cn1cncc1C(OCc1ccc(C#N)nc1-c1ccc2ccccc2c1)c1ccc(C#N)cc1 (centres undefined) [5-[(4-Cyano-phenyl)-(3-methyl-3H-imidazol-4-yl)-methoxymethyl]-6-naphthalen-2-yl-pyridine-2-carbonitrile]
990 nM	Cn1cncc1C(OCc1ccc(C#N)cc1-c1cccc(OC(F)(F)F)c1)c1ccc(C#N)nc1 (centres undefined) [5-[(5-Cyano-3'-trifluoromethoxy-biphenyl-2-ylmethoxy)-(3-methyl-3H-imidazol-4-yl)-methyl]-pyridine-2-carbonitrile]
1700 nM	Cn1cncc1C(OCc1ccc(C#N)nc1-c1cccc(Cl)c1)c1ccc(C#N)cc1 (centres undefined) [6-(3-Chloro-phenyl)-5-[(4-cyano-phenyl)-(3-methyl-3H-imidazol-4-yl)-methoxymethyl]-pyridine-2-carbonitrile]
24 nM	Cn1cncc1C(OCc1ccc(C#N)cn1)c1ccc(C#N)c(-c2cccc3ccccc23)c1 (centres undefined) [A-315493]
